{"source": "patent US9521847B2", "about": "“Synergistic weed control from applications of pyridine carboxylic acid herbicides and synthetic auxin herbicides and/or auxin transport inhibitors” (Dow AgroSciences LLC, priority 2014, dated 2016)", "key": {"[1]": {"tested_on": "pigweed (AMARE, Amaranthus retroflexus)", "test": "Greenhouse postemergence trial, % visual injury", "format": "in vivo", "settings": "for % visual injury, Obs: AMARE"}, "[2]": {"tested_on": "winter rape (BRSNW, Brassica napus)", "test": "Greenhouse postemergence trial, % visual injury", "format": "in vivo"}, "[3]": {"tested_on": "common lambsquarters (CHEAL, Chenopodium album L.)", "test": "Greenhouse postemergence trial, % visual injury", "format": "in vivo"}, "[4]": {"tested_on": "kochia (KCHSC, Kochia scoparia)", "test": "Greenhouse postemergence trial, % visual injury", "format": "in vivo", "description": "Following the protocol in Example 1, compound 1 and compound 2 were combined with 2,4 D EHE (EC) and applied to kochia (KCHSC, Kochia scoparia) and the phytotoxicity of the herbicidal compositions was measured.\nFollowing the protocol in Example 1, compound 1 (EC) and Compound 2 (SC) were combined with diflufenzopyr and applied to kochia (Kochia scoparia, KCHSC) and the phytotoxicity of the herbicidal composition was measured."}, "[5]": {"tested_on": "velvetleaf (Abutilon theophrasti, ABUTH)", "test": "Greenhouse postemergence trial, % visual injury", "format": "in vivo", "settings": "Abutilon theophrasti, post-emergence, ABUTH, read-out: % visual injury, Obs"}, "[6]": {"tested_on": "nutsedge (Cyperus esculentus, CYPES)", "test": "Greenhouse postemergence trial, % visual injury", "format": "in vivo", "settings": "CYPES"}, "[7]": {"tested_on": "wild buckwheat (Polygonum convolvulus, POLCO)", "test": "Greenhouse postemergence trial, % visual injury", "format": "in vivo", "settings": "for % visual injury, Obs: POLCO"}, "[8]": {"tested_on": "common chickweed (Stellaria media, STEME)", "test": "Greenhouse postemergence trial, % visual injury", "format": "in vivo", "settings": "STEME"}, "[9]": {"tested_on": "large crabgrass (Digitaria sanguinalis, DIGSA)", "test": "Greenhouse postemergence trial, % visual injury", "format": "in vivo", "settings": "Digitaria sanguinalis, post-emergence; DIGSA; MCPA EHE 140 g ae/ha; read-out: % visual injury, Obs"}, "[10]": {"tested_on": "kochia (KCHSC, Kochia scoparia)", "test": "Patio postemergence trial, % visual injury", "format": "in vivo", "settings": "280 g ae/ha alone, 20-22 d", "description": "(§1) The plants were grown for 7-36 days (d) on a fenced, open-air patio. Nutrients and water were added on a regular basis.\n(§2) Temperatures and photoperiods were dependent on the natural weather conditions during the trials. Weather conditions during trials were conducive for plant growth and development."}, "winter wheat (TRZAW) [11]": {"tested_on": "winter wheat (TRZAW)", "test": "Patio postemergence trial, crop phytotoxicity (% visual injury)", "format": "in vivo, Triticum aestivum", "settings": "280 g ae/ha alone, 20-22 d", "description": "as §1, §2"}, "[12]": {"tested_on": "Canadian thistle (CIRAR, Cirsium arvense)", "test": "Greenhouse postemergence trial, % visual injury", "settings": "CIRAR, 280 g ae/ha"}, "[13]": {"tested_on": "spring rape (Brassica napus, BRSNN)", "test": "Greenhouse postemergence trial, % visual injury", "settings": "Brassica napus, post-emergence, read-out: % visual injury, Obs"}, "[14]": {"tested_on": "poinsettia (Euphorbia heterophylla, EPHHL)", "test": "Greenhouse postemergence trial, % visual injury", "settings": "Euphorbia heterophylla, post-emergence"}, "[15]": {"tested_on": "wild pansy (Viola tricolor, VIOTR)", "test": "Greenhouse postemergence trial, % visual injury", "settings": "VIOTR"}, "[16]": {"tested_on": "ivyleaf morningglory (Ipomoea hederacea, IPOHE)", "test": "Greenhouse postemergence trial, % visual injury", "settings": "Ipomoea, post-emergence"}, "spring barley (HORVS)": {"tested_on": "spring barley (HORVS)", "test": "Greenhouse postemergence trial, crop phytotoxicity (% visual injury)"}, "winter wheat (TRZAW) [17]": {"tested_on": "winter wheat (TRZAW)", "test": "Greenhouse postemergence trial, crop phytotoxicity (% visual injury)", "settings": "for % visual injury, Obs: TRZAW"}, "maize (ZEAMX)": {"tested_on": "maize (ZEAMX)", "test": "Greenhouse postemergence trial, crop phytotoxicity (% visual injury)", "settings": "ZEAMX"}, "common rice (ORYSA)": {"tested_on": "common rice (ORYSA)", "test": "Greenhouse postemergence trial, crop phytotoxicity (% visual injury)", "settings": "ORYSA"}, "[18]": {"tested_on": "grain sorghum (Sorghum vulgare, SORVU)", "test": "Greenhouse postemergence trial, % visual injury", "format": "in vivo", "settings": "SORVU, 140 g ae/ha"}, "[19]": {"tested_on": "soybean (Glycine max, GIAMA)", "test": "Greenhouse postemergence trial, % visual injury", "format": "in vivo", "settings": "GLXMA, 140 g ae/ha"}, "[20]": {"settings": "crop, 280 g ae/ha alone, 20-22 d"}}, "note": "Read-outs that look alike come from different tables or passages of the source."}
{"smiles": "CCCCC(CC)COC(=O)COc1ccc(Cl)cc1C", "note": "(centres unmarked) [MCPA EHE, 2-ethylhexyl (4-chloro-2-methylphenoxy)acetate]", "values": [{"measurement": "% visual injury, Obs", "setting": "[1]; MCPA EHE 140 g ae/ha", "value": 70, "unit": "%"}, {"measurement": "pest or weed control at 280 g/ha", "setting": "[1]; Amaranthus retroflexus, post-emergence, 280 g ae/ha alone, 20-22 d, read-out: % visual injury Obs", "value": 35, "unit": "%"}, {"measurement": "% visual injury Obs", "setting": "[2]; 280 g ae/ha alone, 20-22 d", "value": 73, "unit": "%"}, {"measurement": "pest or weed control at 280 g/ha", "setting": "[3]; Chenopodium album, post-emergence, 280 g ae/ha alone, 20-22 d, read-out: % visual injury Obs", "value": 75, "unit": "%"}, {"measurement": "% visual injury Obs", "setting": "[4]; 280 g ae/ha alone, 20-22 d", "value": 0, "unit": "%"}, {"measurement": "pest or weed control at 280 g/ha", "setting": "[4]; Bassia scoparia, post-emergence, KCHSC, 280 g ae/ha, read-out: % visual injury, Obs", "value": 0, "unit": "%"}, {"measurement": "pest or weed control at 280 g/ha", "setting": "[5]; 280 g ae/ha", "value": 65, "unit": "%"}, {"measurement": "pest or weed control at 140 g/ha", "setting": "[5]; MCPA EHE 140 g ae/ha", "value": 0, "unit": "%"}, {"measurement": "% visual injury, Obs", "setting": "[6]; 280 g ae/ha", "value": 50, "unit": "%"}, {"measurement": "% visual injury, Obs", "setting": "[6]; MCPA EHE 140 g ae/ha", "value": 0, "unit": "%"}, {"measurement": "% visual injury (Obs)", "setting": "[7]; MCPA EHE 420 g ae/ha", "value": 65, "unit": "%"}, {"measurement": "% visual injury, Obs", "setting": "[7]; 280 g ae/ha", "value": 70, "unit": "%"}, {"measurement": "% visual injury, Obs", "setting": "[7]; 420 g ae/ha", "value": 65, "unit": "%"}, {"measurement": "% visual injury, Obs", "setting": "[8]; 280 g ae/ha", "value": 10, "unit": "%"}, {"measurement": "pest or weed control at 140 g/ha", "setting": "[9]", "value": 10, "unit": "%"}, {"measurement": "% visual injury Obs", "setting": "[10]", "value": 20, "unit": "%"}, {"measurement": "% visual injury Obs", "setting": "winter wheat (TRZAW) [11]", "value": 0, "unit": "%"}, {"measurement": "% visual injury, Obs", "setting": "[12]", "value": 75, "unit": "%"}, {"measurement": "plant injury at 140 g/ha", "setting": "[13]", "value": 35, "unit": "%"}, {"measurement": "plant injury at 280 g/ha", "setting": "[13]", "value": 95, "unit": "%"}, {"measurement": "pest or weed control at 140 g/ha", "setting": "[14]; read-out: % visual injury, Obs, EPHHL, MCPA EHE 140 g ae/ha", "value": 0, "unit": "%"}, {"measurement": "% visual injury, Obs", "setting": "[15]; 280 g ae/ha", "value": 75, "unit": "%"}, {"measurement": "% visual injury, Obs", "setting": "[15]; MCPA EHE 140 g ae/ha", "value": 60, "unit": "%"}, {"measurement": "pest or weed control at 140 g/ha", "setting": "[16]; read-out: % visual injury, Obs, IPOHE, MCPA EHE 140 g ae/ha", "value": 80, "unit": "%"}, {"measurement": "% visual injury, Obs", "setting": "spring barley (HORVS); HORVS, 420 g ae/ha", "value": 0, "unit": "%"}, {"measurement": "% visual injury (Obs)", "setting": "spring barley (HORVS); MCPA EHE 420 g ae/ha", "value": 0, "unit": "%"}, {"measurement": "% visual injury Obs", "setting": "spring barley (HORVS); [20]", "value": 0, "unit": "%"}, {"measurement": "% visual injury (Obs)", "setting": "winter wheat (TRZAW) [17]; MCPA EHE 420 g ae/ha", "value": 0, "unit": "%"}, {"measurement": "% visual injury, Obs", "setting": "winter wheat (TRZAW) [17]; 280 g ae/ha", "value": 0, "unit": "%"}, {"measurement": "% visual injury, Obs", "setting": "winter wheat (TRZAW) [17]; 420 g ae/ha", "value": 0, "unit": "%"}, {"measurement": "% visual injury, Obs", "setting": "winter wheat (TRZAW) [17]; MCPA EHE 140 g ae/ha", "value": 3, "unit": "%"}, {"measurement": "% visual injury Obs", "setting": "winter wheat (TRZAW) [17]; [20]", "value": 3, "unit": "%"}, {"measurement": "% visual injury, Obs", "setting": "maize (ZEAMX); 280 g ae/ha", "value": 0, "unit": "%"}, {"measurement": "% visual injury, Obs", "setting": "maize (ZEAMX); MCPA EHE 140 g ae/ha", "value": 0, "unit": "%"}, {"measurement": "% visual injury, Obs", "setting": "common rice (ORYSA); 280 g ae/ha", "value": 0, "unit": "%"}, {"measurement": "% visual injury, Obs", "setting": "common rice (ORYSA); MCPA EHE 140 g ae/ha", "value": 3, "unit": "%"}]}
{"smiles": "O=C(O)c1c(Cl)ccc2cc(Cl)cnc12", "note": "[quinclorac, reference compound]", "values": [{"measurement": "% visual injury, Obs", "setting": "[1]; 140 g ae/ha", "value": 10, "unit": "%"}, {"measurement": "% visual injury, Obs", "setting": "[2]; BRSNW, 140 g ae/ha", "value": 0, "unit": "%"}, {"measurement": "% visual injury, Obs", "setting": "[3]; CHEAL, 140 g ae/ha", "value": 5, "unit": "%"}, {"measurement": "pest or weed control at 140 g/ha", "setting": "[4]; Bassia scoparia, post-emergence, KCHSC, 140 g ae/ha, read-out: % visual injury, Obs", "value": 0, "unit": "%"}, {"measurement": "pest or weed control at 140 g/ha", "setting": "[5]; 140 g ae/ha", "value": 0, "unit": "%"}, {"measurement": "% visual injury, Obs", "setting": "[18]", "value": 0, "unit": "%"}, {"measurement": "% visual injury, Obs", "setting": "[8]; 140 g ae/ha", "value": 10, "unit": "%"}, {"measurement": "% visual injury, Obs", "setting": "[19]", "value": 30, "unit": "%"}, {"measurement": "pest or weed control at 140 g/ha", "setting": "[14]; read-out: % visual injury, Obs, EPHHL, 140 g ae/ha", "value": 20, "unit": "%"}, {"measurement": "% visual injury, Obs", "setting": "[15]; 140 g ae/ha", "value": 10, "unit": "%"}, {"measurement": "pest or weed control at 140 g/ha", "setting": "[16]; read-out: % visual injury, Obs, IPOHE, 140 g ae/ha", "value": 65, "unit": "%"}, {"measurement": "% visual injury, Obs", "setting": "winter wheat (TRZAW) [17]; 140 g ae/ha", "value": 0, "unit": "%"}, {"measurement": "% visual injury, Obs", "setting": "maize (ZEAMX); 140 g ae/ha", "value": 0, "unit": "%"}, {"measurement": "% visual injury, Obs", "setting": "common rice (ORYSA); 140 g ae/ha", "value": 0, "unit": "%"}]}
